Test results from patent US6916840B2, “Spla2 inhibitors” (Eli Lilly and Company, priority 2000, dated 2005).

System: not given
Assay: not given
Conditions: not given

melting point [°C]	SMILES
165 to 167	CCc1c(C(=O)C(N)=O)c2c(OCC(=O)OC)cc3ccccc3c2n1Cc1ccccc1 (hydrate or solvate) [Example 1, 2-[[3-(2-Amino-1,2-dioxoethyl)-2-ethyl-1-benzyl-1H-benz[g]indol-4-yl]oxy]acetic acid methyl ester hemihydrate]

Biological target: T1, recombinant human secreted phospholipase A2 (sPLA2) (Homo sapiens, UniProt P14555)
T1 sequence (P14555 21-144): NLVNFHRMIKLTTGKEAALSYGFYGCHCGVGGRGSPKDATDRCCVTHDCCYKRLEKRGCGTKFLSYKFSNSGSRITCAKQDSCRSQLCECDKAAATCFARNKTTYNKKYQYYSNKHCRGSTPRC
Assay: chromogenic assay for inhibitors of recombinant human secreted phospholipase A2
Format: biochemical
Conditions: diheptanoyl thio-PC substrate 1 mM, Triton X-100 mixed micelles, pH 7.5, 40° C. for 30 minutes, absorbance at 405 nm, triplicate
Excerpt: The following chromogenic assay procedure was used to identify and evaluate inhibitors of recombinant human secreted phospholipase A2. The assay described herein has been adapted for high volume screening using 96 well microtiter plates. A general description of this assay method is found in the article, “Analysis of Human Synovial Fluid Phospholipase A2 on Short Chain Phosphatidylcholine-Mixed Micelles: Development of a Spectrophotometric Assay Suitable for a Microtiterplate Reader”, by Laure J. Reynolds, Lori L. Hughes, and Edward A Dennis, Analytical Biochemistry, 204, pp. 190-197, 1992 (the disclosure of which is incorporated herein by reference):
A measured volume of racemic dipheptanoyl thio PC supplied in chloroform at a concentration of 100 mg/ml is taken to dryness and redissolved in 10 millimolar TRITON X-100™ nonionic detergent aqueous solution. Reaction Buffer is added to the solution, then DTNB to give the Reaction Mixture.
The reaction mixture thus obtained contains 1 mM diheptanoly thio-PC substrate, 0.29 mm Triton X-100™ detergent, and 0.12 mm DTMB in a buffered aqueous solution at pH 7.5.
• 1. Add 0.2 ml reaction mixture to all wells; • 2. Add 10 ul test compound (or solvent blank) to appropriate wells, mix 20 seconds; • 3. Add 50 nanograms of sPLA2 (10 microliters) to appropriate wells; • 4. Incubate plate at 40° C. for 30 minutes; • 5. Read absorbance of wells at 405 nanometers with an automatic plate reader.
Tests were done in triplicate. Typically, compounds were tested at a final concentration of 5 ug/ml. […] Lack of color development at 405 nanometers evidenced inhibition. Compounds initially found to be active were re-assayed to confirm their activity and, if sufficiently active, IC50 values were determined. […] In all cases, % inhibition measured at 405 nanometers generated by enzyme reactions containing inhibitors relative to the uninhibited control reactions was determined. Each sample was titrated in triplicate and result values were averaged for plotting and calculation of IC50 values. IC50 values were determined by plotting log concentration versus inhibition values in the range from 10-90% inhibition.

SMILES	IC50 [µM]
Cc1c(C(=O)C(N)=O)c2c(OCC(=O)O)cc3ccccc3c2n1Cc1cccc(-c2ccc(F)cc2)c1 [Example 6, 2-[[3-(2-Amino-1,2-dioxoethyl)-2-methyl-1-[3-(4-fluorophenyl)benzyl]-1H-benz[g]indol-4-yl]oxy]acetic acid.]	0.021
Cc1c(C(=O)C(N)=O)c2c(OCC(=O)O)cc3ccccc3c2n1CC1CCCCC1 [Example 4, 2-[[3-(2-Amino-1,2-dioxoethyl)-2-methyl-1-cyclohexylmethyl-1H-benz[g]indol-4-yl]oxy]acetic acid]	0.011
CCc1c(C(=O)C(N)=O)c2c(OCC(=O)OC)cc3ccccc3c2n1Cc1ccccc1 [Example 1, 2-[[3-(2-Amino-1,2-dioxoethyl)-2-ethyl-1-benzyl-1H-benz[g]indol-4-yl]oxy]acetic acid methyl ester hemihydrate]	0.048
COC(=O)COc1cc2ccccc2c2c1c(C(=O)C(N)=O)c(C)n2CC1CCCCC1 [Example 3, 2-[[3-(2-amino-1,2-dioxoethyl)-2-methyl-1-cyclohexylmethyl-1H-benz[g]indol-4-yl]oxy]acetic acid methyl ester]	0.148
CCc1c(C(=O)C(N)=O)c2c(OCC(=O)O)cc3ccccc3c2n1Cc1ccccc1 [Example 2, 2-[[3-(2-Amino-1,2-dioxoethyl)-2-ethyl-1-benzyl-1H-benz[g]indol-4-yl]oxy]acetic acid]	0.01
COC(=O)COc1cc2ccccc2c2c1c(C(=O)C(N)=O)c(C)n2Cc1cccc(-c2ccc(F)cc2)c1 [Example 5, 2-[[3-(2-Amino-1,2-dioxoethyl)-2-methyl-1-[3-(4-fluorophenyl)benzyl]-1H-benz[g]indol-4-yl]oxy]acetic acid methyl ester]	0.176
